Assay results as given in BindingDB's records for patent US20240383913 (Chinese Academy of Sciences, 2024).

Tests used:
D(2) dopamine receptor = D(2) dopamine receptor (Homo sapiens, UniProt P14416); assay: Affinity of Compounds for Dopamine D2 Receptors
Description: The affinity of the compounds of the present disclosure for the dopamine D2 receptors was determined by the method of radioligand competition experiment. In the first step, a cell membrane component containing specific dopamine D2 receptors was prepared. A 10 cm culture dish was used for transfection with 10 ng of the dopamine D2 receptors and 40 μL of polyethylenimine (PEI hereafter). After 48 hours, the 10 cm culture dish was taken out from the cell culture incubator and the cultured cells had expressed the dopamine D2 receptors. A vacuum pump was used to suck off the culture medium, 3 mL of lysis buffer was added to each culture dish, and the cells were placed in a 4° C. cold room for 10 minutes. After the cells were detached, the cells were transferred to a 15 mL centrifuge tube and centrifuged at 1500 rpm for 5 minutes at 4° C., and the supernatant was discarded. The cell pellet was transferred to a tissue homogenizer, and 3 mL of lysis buffer was added and fully ground until the cells were broken. Then, cell suspension was equally aliquoted into several EP tubes, centrifuged at 12000 rpm for 5 minutes at 4° C., and the supernatant was discarded. The precipitate was the cell membrane component containing the dopamine D2 receptors. […]

[1] = target: 5-hydroxytryptamine receptor 2A (Homo sapiens, UniProt P28223); assay: Affinity of Compounds for 5-HT2A Receptors
Chain of 5-hydroxytryptamine receptor 2A (P28223 whole entry): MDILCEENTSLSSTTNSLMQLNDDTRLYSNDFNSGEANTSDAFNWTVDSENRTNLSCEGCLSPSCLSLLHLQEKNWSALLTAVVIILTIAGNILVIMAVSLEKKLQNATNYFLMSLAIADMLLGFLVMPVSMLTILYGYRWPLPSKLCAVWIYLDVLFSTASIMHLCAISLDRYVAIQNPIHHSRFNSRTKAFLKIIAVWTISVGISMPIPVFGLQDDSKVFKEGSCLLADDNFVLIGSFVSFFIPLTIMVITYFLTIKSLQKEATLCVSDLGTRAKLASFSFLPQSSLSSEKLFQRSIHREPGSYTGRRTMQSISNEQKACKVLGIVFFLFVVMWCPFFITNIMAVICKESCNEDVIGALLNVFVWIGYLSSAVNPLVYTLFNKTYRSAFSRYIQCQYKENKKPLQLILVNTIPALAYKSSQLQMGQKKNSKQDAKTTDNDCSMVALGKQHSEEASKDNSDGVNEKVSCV
Description: The affinity of the compounds of the present disclosure for the 5-HT2A receptors was determined by the method of radioligand competition experiment. In the first step, a cell membrane component containing specific 5-HT2A receptor was prepared. A 10 cm dish was used for transfection with 10 ng of the 5-HT2A receptor and 40 μL of PEI. After 48 hours, the 10 cm dish was taken out from the cell incubator and the cultured cells had expressed the 5-HT2A receptor. A vacuum pump was used to suck off the culture medium, 3 mL of lysis buffer was added to each culture dish, and the cells were placed in a 4° C. cold room for 10 minutes. After the cells were detached, the cells were transferred to a 15 mL centrifuge tube and centrifuged at 1500 rpm for 5 minutes at 4° C., and the supernatant was discarded. The cell pellet was transferred to a tissue homogenizer, and 3 mL of lysis buffer was added and fully ground until the cells were broken. Then, cell suspension was equally aliquoted into several EP tubes, centrifuged at 12000 rpm for 5 minutes at 4° C., and the supernatant was discarded. The precipitate was the cell membrane component containing the 5-HT2A receptor. […] First, a standard binding buffer was added to the cell membrane component containing the 5-HT2A receptor, and the cell membrane was disrupted and resuspended with an electric tissue homogenizer. […]

Chain of D(2) dopamine receptor (P14416 whole entry): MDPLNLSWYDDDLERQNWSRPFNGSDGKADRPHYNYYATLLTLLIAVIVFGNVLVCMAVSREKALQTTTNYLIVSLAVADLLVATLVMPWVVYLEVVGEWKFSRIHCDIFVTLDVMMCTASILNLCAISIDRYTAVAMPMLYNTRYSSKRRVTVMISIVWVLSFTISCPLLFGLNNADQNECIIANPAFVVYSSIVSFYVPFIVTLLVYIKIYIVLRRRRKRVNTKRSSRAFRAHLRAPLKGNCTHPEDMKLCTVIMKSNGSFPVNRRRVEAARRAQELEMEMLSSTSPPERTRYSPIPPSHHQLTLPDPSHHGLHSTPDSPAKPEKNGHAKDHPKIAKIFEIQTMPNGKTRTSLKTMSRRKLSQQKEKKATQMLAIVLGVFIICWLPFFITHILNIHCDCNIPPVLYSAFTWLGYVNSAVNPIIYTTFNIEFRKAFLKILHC

c1ccc(-c2cccc(CN3CCN4c5cccc6scc(c56)CC4C3)c2)cc1 (configuration not stated) [US20240383913, Compound I-7]
Ki (D(2) dopamine receptor): 310 nM
Ki [1]: 910 nM
